# Data published in patent US20120070421A1 (priority 2009, published 2012).
# Read-outs that look alike come from different tables or passages of the source.
# Columns and labels:
# Plasmopara viticola = test: Green house: fungicidal control of grape downy mildew, protective spray on grape cuttings; type: in vivo; conditions: single active, grape plants, sprayed 1 day before inoculation
# Protocol: The stock solution were prepared: a mixture of acetone and/or dimethylsulfoxide and the wetting agent/emulsifier Wettol, which is based on ethoxylated alkylphenoles, in a relation (volume) solvent-emulsifier of 99 to 1 was added to 25 mg of the compound to give a total of 10 ml. Water was then added to total volume of 100 ml. This stock solution was diluted with the described solvent-emulsifier-water mixture to the given concentration.
# The visually determined percentages of infected leaf areas are converted into efficacies in % of the untreated control.
# The efficacy (E) is calculated as follows using Abbot's formula: […]
# α corresponds to the fungicidal infection of the treated plants in % and β corresponds to the fungicidal infection of the untreated (control) plants in %
# An efficacy of 0 means that the infection level of the treated plants corresponds to that of the untreated control plants; an efficacy of 100 means that the treated plants were not infected.
# The expected efficacies of active compound combinations were determined using Colby's formula (Colby, S. R. “Calculating synergistic and antagonistic responses of herbicide combinations”, Weeds, 15, pp. 20-22, 1967) and compared with the observed efficacies.
# Colby's formula: E=x+y−x·y/100
# E expected efficacy, expressed in % of the untreated control, when using the mixture of the active compounds A and B at the concentrations a and b x efficacy, expressed in % of the untreated control, when using the active compound A at the concentration a y efficacy, expressed in % of the untreated control, when using the active compound B at the concentration b.
# Grape cuttings were grown in pots to the 4 to 5 leaf stage. These plants were sprayed to run-off with an aqueous suspension, containing the concentration of active ingredient or their mixture mentioned in the table below. The plants were allowed to air-dry. […] Then the extent of fungal attack on the lower leaf surface was visually assessed as % diseased leaf area.
# Phytophthora infestans = type: cell-based; conditions: 0.00025 ppm, single active, 7 days after inoculation
# Pyricularia oryzae = type: cell-based; conditions: single active, 7 days after inoculation
smiles,measurement,setting,value
Cn1cc(C(=O)Nc2ccccc2-c2cc(F)c(F)c(F)c2)c(C(F)F)n1,Observed efficacy,Plasmopara viticola; 0.016 ppm,0%
"Cc1cc(C(F)(F)F)nn1CC(=O)N1CCC(c2nc(C(=O)N(C)[C@@H]3CCCc4ccccc43)cs2)CC1 [2-{1-[2-(5-methyl-3-trifluoromethyl-pyrazol-1-yl)-acetyl]-piperid-4-yl}-thiazole-4-carboxylic acid methyl-(R)-1,2,3,4-tetrahydro-naphthalen-1-yl-amide]",Observed efficacy,Phytophthora infestans,0%
same,Observed efficacy,Plasmopara viticola; 0.063 ppm,67%
same,Observed efficacy,Pyricularia oryzae; 0.063 ppm,1%
same,Observed efficacy,Pyricularia oryzae; 63 ppm,28%
CCCCCCCCc1c(CC)nc2ncnn2c1N [drawing 4],Observed efficacy,Plasmopara viticola; 0.016 ppm,11%
"CCCCCCCCc1c(CC)nc2ncnn2c1N [drawing 13, reference compound]",Observed efficacy,Pyricularia oryzae; 4 ppm,10%
